Data set [1] concerns mice fed an atherogenic diet. The following applies: 20 μg daily injected; cited from earlier work.
Data set [2] relates to human aortic endothelial cells. Kind of data set: Prevention of LDL-induced monocyte chemotactic activity, co-incubation. The class given is cell-based. The following applies: co-incubation with control human LDL 200 μg protein/ml, overnight.
Data set [3] relates to human aortic endothelial cells. Kind of data set: Prevention of LDL-induced monocyte chemotactic activity by pre-treatment of artery wall cells. The class given is cell-based. The following applies: 6 hrs pre-incubation with peptide, wash, then control human LDL 200 μg protein/ml overnight. As for the experimental part: FIG. 2 illustrates the prevention of LDL-induced monocyte chemotactic activity by pre-treatment of artery wall cells with D-J336 as compared to D-4F. The data are mean±SD of the number of migrated monocytes in nine high power fields in quadruple cultures.
FIG. 2 illustrates a comparison of the effect of D-4F with the effect of D-J336 on the prevention of LDL induced monocyte chemotactic activity in a pre-incubation. Human aortic endothelial cells were pre-incubated with D-J336 or D-4F at 4, 2, and 1µg/ml for DJ336 or 100, 50, 25, and 12.5 μg/ml for D-4F for 6 hrs. The cultures were then washed and were incubated with medium alone (no addition), or with control human LDL (200 μg protein/ml), or with control human LDL+ control human HDL (350 μg HDL protein/ml) as assay controls. The wells that were pre-treated with peptides received the control human LDL at 200 μg protein/ml. Following overnight incubation, the supernatants were assayed for monocyte chemotactic activity.

A further data set has as its system LDL receptor null mice. Kind of data set: HDL protective capacity in LDL receptor null mice given peptide in drinking water. The class given is in vivo. The following applies: 0.25 or 0.5 mg per ml of drinking water, 24 or 48 hrs, mouse HDL at 100 μg/ml. The procedure:
FIG. 3 illustrates the effect of apo J peptide mimetics on HDL protective capacity in LDL receptor null mice. The values are the mean±SD of the number of migrated monocytes in 9 high power fields from each of quadruple assay wells.
D-4F designated as F, or the apoJ peptide made from D amino acids (D-J336, designated as J) was added to the drinking water of LDL receptor null mice (4 per group) at 0.25 or 0.5 mg per ml of drinking water. After 24- or 48-hrs blood was collected from the mice and their HDL was isolated and tested for its ability to protect against LDL-induced monocyte chemotactic activity. Assay controls included culture wells that received no lipoproteins (no addition), or control human LDL alone (designated as LDL, 200µg cholesterol/ml), or control LDL+ control human HDL (designated as +HDL, 350µg HDL cholesterol). For testing the mouse HDL, the control LDL was added together with mouse HDL (+F HDL or +J HDL) to artery wall cell cultures. The mouse HDL was added at 100 μg cholesterol/ml respectively.

Data set [4] concerns ApoE null mice. Kind of data set: Protection against LDL-induced monocyte chemotactic activity by HDL from apo E null mice given oral peptides. It counts as in vivo, mouse. An excerpt: FIG. 4 illustrates protection against LDL-induced monocyte chemotactic activity by HDL from apo E null mice given oral peptides. The values are the mean±SD of the number of migrated monocytes in 9 high power fields from each of quadruple assay wells. Asterisks indicate significant difference (p<0.05) as compared to No Peptide mHDL.
After 24 hrs blood was collected, plasma fractionated by FPLC and fractions containing LDL (designated as mLDL for murine LDL) and fractions containing HDL (designated as mHDL) were separately pooled and HDL protective capacity against LDL oxidation as determined by LDL-induced monocyte chemotactic activity was determined. For the assay controls the culture wells received no lipoproteins (no additions), mLDL alone (at 200 μg cholesterol/ml), or mLDL+ standard normal human HDL (designated as Cont. h HDL, at 350 μg HDL cholesterol/ml).
For testing the murine HDL, mLDL together with murine HDL (+F mHDL or +J mHDL) were added to artery wall cell cultures. […] The murine HDL was used at 100µg cholesterol/ml.

Data set [5] has as its system ApoE null mice. Briefly: Ability of LDL from apoE null mice given oral peptides to induce monocyte chemotactic activity (LDL susceptibility to oxidation). It counts as in vivo, mouse. The following applies: added to the drinking water, 24 hrs. An excerpt: FIG. 5 illustrates the effect of oral apo A-1 peptide mimetic and apoJ peptide on LDL susceptibility to oxidation. The values are the mean±SD of the number of migrated monocytes in 9 high power fields from each of quadruple assay wells. Asterisks indicate significant difference (p<0.05) as compared to No Peptide LDL.
FIG. 5 illustrates the effect of oral apo A-1 peptide mimetic and apoJ peptide on LDL susceptibility to oxidation. […] After 24 hrs blood was collected from the mice shown in FIG. 4, plasma fractionated by FPLC and fractions containing LDL (designated as mLDL for murine LDL) were pooled and LDL susceptibility to oxidation as determined by induction of monocyte chemotactic activity was determined. For the assay controls the culture wells received no lipoproteins (no additions), mLDL alone (at 200 μg cholesterol/ml), or mLDL+ standard normal human HDL (designated as Cont. h HDL, 350 μg HDL cholesterol).
Murine LDL, mLDL, from mice that received the D-4F (F mLDL) or those that received the apoJ peptide (J mLDL) were added to artery wall cell cultures.

Data set [6] concerns ApoE null mice. Kind of data set: Protection against PAPC oxidation by HPODE and induction of monocyte chemotactic activity by HDL from apo E null mice given oral peptides. The following applies: added to the drinking water, 24 hrs; murine HDL 100 μg cholesterol/ml. The class given is in vivo, mouse. The procedure: The values are the mean±SD of the number of migrated monocytes in 9 high power fields from each of quadruple assay wells. Asterisks indicate significant difference (p<0.05) as compared to No Peptide mHDL.
After 24 hrs blood was collected, plasma fractionated by FPLC and fractions containing HDL (designated as mHDL) were pooled and HDL protective capacity against PAPC oxidation as determined by the induction of monocyte chemotactic activity was determined. For the assay controls the culture wells received no lipoproteins (no additions), the phospholipid PAPC at 20µg/ml+HPODE, at 1.0 μg/ml, or PAPC+HPODE plus standard normal human HDL (at 350 μg HDL cholesterol/ml and designated as +Cont. h HDL).
For testing the murine HDL, PAPC+HPODE together with murine HDL (+F mHDL or +J mHDL) were added to artery wall cell cultures. […] The murine HDL was used at 100 μg cholesterol/ml.

A further data set deals with PON1. The following applies: added to the drinking water, 24 hrs.
Data set [7] in a line: Association with pre-beta HDL / HDL and clearance from the circulation after an oral dose. The following applies: mouse, in vivo.
For a further data set, the system named is C57Bl/6J-apoE null mice. Briefly: Intravitreal L-4F: electron microscopy of Bruch's membrane of aged C57Bl/6J-apoE null mice. The class given is in vivo, mouse. An excerpt:
In every other RPE cell big lipid vacuoles (asterisks) are found, a sign of stress and beginning degeneration. PR: photo receptors; CC: choriocapillaris: EC: vascular endothelial cell of the choriocapillaris.
The membrane is slightly thickened with multiple translucent lipid vacuoles. A few are marked with asterisks. EC: vascular endothelial cell of choriocapillaris.
An effective clearance of this lipid debris via an ApoA-I mimetic peptide (L-4F) could prevent early AMD-like degeneration.
L-4F was injected directly into the vitreous cavity of right eyes of 10 eight month old C57Bl/6J-apoE null mice. A single dose of 3 μl was injected with a L-4F concentration of 400 μg/ml. All left eyes were untreated throughout the study and thus be served as controls. The animals were then sacrificed 21 days after the injection and the eyes were immediately enucleated and fixed. Eyes then were processed for electron microscopy (EM).

The subject of another data set is human LDL. Briefly: Treating human LDL in vitro: removal of seeding molecules. An excerpt:
(§1) We discovered that normal HDL inhibits three steps in the formation of mildly oxidized LDL. […] These seeding molecules were required for cocultures of human artery wall cells to be able to oxidize LDL and for the LDL to induce the artery wall cells to produce monocyte chemotactic activity.

The test system of the next data set is mice. Briefly: LDL isolated after injection of apo A-I into mice: oxidation by human artery wall cells. The class given is in vivo, mouse.
Source text: as §1

The subject of a further data set is human volunteers. Briefly: LDL isolated after infusion of apo A-I into humans: oxidation by human artery wall cells. It counts as in vivo.
Source text: as §1

Data set [8] concerns ApoE null mice. Kind of data set: HDL function after D-4F and/or statin in the drinking water. The class given is in vivo, mouse. The following applies: 0.05 mg/ml in the drinking water for 24 hours.

Description for PON1: The values are the mean±SD of readings from quadruple plasma aliquots.
After 24 hrs blood was collected and plasma was assayed for PON1 activity.

On to “Ac-D-W-L-K-A-F-Y-D-K-V-F-E-K-F-K-E-F-F-NH2 (Ac-DWLKAFYDKVFEKFKEFF-NH2) [Peptide 5F]”, for which, in data set [1], the “LDL from PBS-injected mice compared with LDL from peptide-injected mice: oxidation and induction of monocyte chemotactic activity” value is “more readily oxidized and more readily induced monocyte chemotactic activity than LDL taken from mice fed the same diet but injected with 20µg daily of peptide 5F”.
Consider Ac-LLEQLNEQFNWVSRLANLTQGE-NH2 [D-J336], for which the “in vitro concentration that prevents LDL-induced monocyte chemotactic activity by human artery wall cells, relative to the concentration required for the D-4F peptide” value in data set [2] lay within 10 to 25 times less. In data set [3], the “potency in preventing LDL oxidation by artery wall cells in vitro, compared with D-4F” value is listed as 10-25 times more potent. The “activity of mouse HDL in preventing control LDL from inducing artery wall cells to produce monocyte chemotactic activity” value in the data set with LDL receptor null mice is listed as “as active as 350 μg/ml of control human HDL”. The “activity of murine HDL against LDL-induced monocyte chemotactic activity” value with ApoE null mice [4] (ApoE null mice, peptide in drinking water 24 hrs, murine HDL at 100 μg/ml) is recorded as “as active as 350µg/ml of normal human HDL”. Besides, the “potency in enhancing HDL protective capacity in apo E null mice” value in the data set on ApoE null mice [4] (added to the drinking water, 24 hrs) is “as potent as D-4F”. In addition, the “potency in rendering LDL from apo E null mice resistant to oxidation by human artery wall cells (induction of monocyte chemotactic activity)” value in the data set on ApoE null mice [5] is recorded as “slightly more potent than D-4F”. Also, in the data set on ApoE null mice [6], the “potency in causing HDL to inhibit oxidation of PAPC by HPODE in a human artery wall co-culture (monocyte chemotactic activity)” value is on record as “as potent as D-4F”. For the same compound, the “potency in increasing the paraoxonase activity of apo E null mice” value in the data set on PON1 was “at least as potent as D-4F”.
On to Ac-LVGRQLEEFL-NH2 [D-[113-122]apoJ], for which, in [7], the “association with pre-beta HDL and HDL” value was “slowly associates with pre-beta HDL and to a lesser extent with HDL”; the “time it remains associated with the HDL fractions (pre-beta HDL, HDL)” value is listed as “at least 36 hours”.
As to “Ac-D-W-F-K-A-F-Y-D-K-V-A-E-K-F-K-E-A-F-NH2 (Ac-DWFKAFYDKVAEKFKEAF-NH2) [Peptide L-4F]”, in the data set with C57Bl/6J-apoE null mice (magnification 5,000×), the “Bruch's membrane structure, electron microscopy of treated eyes” value was “regular and uniform Bruch's membrane structure”; the “lipid droplets in RPE cells, electron microscopy of treated eyes” value is on record as “none of the RPE cells showed lipid droplets”. In the data set on C57Bl/6J-apoE null mice (magnification 20,000×), the “translucent lipid vacuoles in Bruch's membrane, electron microscopy of a treated eye” value is given as “no translucent lipid vacuoles shown”. Moreover, the “Bruch's membrane and RPE morphology and lipid content of treated eyes compared to untreated eyes (EM)” value with C57Bl/6J-apoE null mice (single intravitreal 3 μl of 400 μg/ml, 21 days, EM of 2 mice) was “significant improvement in Bruch's membrane and RPE morphology as well as lipid content”.
As to “apo A-I: apolipoprotein A-I, the major protein of HDL”, the “removal of seeding molecules from human LDL in vitro” value in the data set on human LDL was “removed seeding molecules from the LDL that included HPODE and HPETE”. Besides, the “oxidation of LDL isolated after injection, by human artery wall cells, and induction of monocyte chemotactic activity” value with mice is “resistant to oxidation by human artery wall cells and did not induce monocyte chemotactic activity”. Moreover, in the data set on human volunteers, the “oxidation of LDL isolated after infusion, by human artery wall cells, and induction of monocyte chemotactic activity” value is “resistant to oxidation by human artery wall cells and did not induce monocyte chemotactic activity”.
With `CC(C)c1c(C(=O)Nc2ccccc2)c(-c2ccccc2)c(-c2ccc(F)cc2)n1CC[C@@H](O)C[C@@H](O)CC(=O)O` [atorvastatin, reference compound], the “HDL function, statin alone” value in the data set on ApoE null mice [8] is “did not improve HDL function”.

Values taken from US20110182992A1, “PEPTIDES AND PEPTIDE MIMETICS TO TREAT PATHOLOGIES ASSOCIATED WITH EYE DISEASE” (priority 2008, published 2011).
